Results on four molecules are retold here after PMC10819771 (Pharmaceuticals, 2023).

The term IC50 denotes the concentration that inhibits the measured activity by half.

One test has as its system HeLa. The test is described as follows: MTT antiproliferative assay, HeLa. The note with it: for IC50: Homo sapiens, HeLa, MTT, 72 h, cervical cancer cells, read-out: IC50 Values (μM) ± SEM HeLa; for Selectivity Index HEK293/HeLa: IC50 HEK293 / IC50 HeLa. It counts as cell-based, human. In short, it runs like this: (§1)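 Following overnight seeding (5000 cells/well) in supplemented minimum essential medium, compounds were applied at six concentrations between 0.1 and 30.0 µM and incubated 72 h. Viability was then estimated by MTT reduction, reading absorbance at 545 nm.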
A general note: Formazan colour is commonly taken as a measure of viable cells.

For another test, the system named is MDA-MB-231. The test can be described thus: MTT antiproliferative assay, MDA-MB-231. To be noted: for IC50: Homo sapiens, MDA-MB-231, 72 h, MTT, 72 h, breast cancer cells, read-out: IC50 Values (μM) ± SEM MDA-MB-231; for Selectivity Index HEK293/MDA-MB-231: IC50 HEK293 / IC50 MDA-MB-231. The test is classed as cell-based, human. In short, it runs like this: as §1

For another test, the system named is HEK293. The test can be described thus: MTT proliferation test on normal cells, HEK293. The test is classed as cell-based. To be noted: Homo sapiens, normal epithelial cells, cytotoxicity, read-out: IC50 Values (μM) ± SEM HEK293. The procedure:
The MTT proliferation test on the epithelial cell line HEK293 was performed as pre-viously described. The 50% inhibiting concentrations (IC50) were determined by linear regression analysis.

The next test has as its system Fc-MYCT. The test is described as follows: FRET-melting, Fc-MYCT. The note with it: ligand 2 μM, DNA 0.2 μM, K+ conditions, pH 7.2. It counts as binding.
The test system of a further test is FdxT. The test can be described thus: FRET-melting, duplex control FdxT. It counts as binding. To be noted: ligand 2 μM, DNA 0.2 μM, 10 mM KCl, 90 mM LiCl, pH 7.2, hairpin duplex.
For a further test, the system named is c-MYC. The test can be described thus: Native electrospray mass spectrometry, c-MYC. It counts as binding. The note with it: 10 µM DNA, 20 µM ligand; for Bound DNA (%) c-MYC: 100 mM ammonium acetate. The procedure: (§2) These parameters ensured a good signal intensity without disrupting noncovalent complexes, which was verified using d[G4T4G4]2 as a control. Oligonucleotides were purchased lyophilized, and RP-cartridge purified from Eurogentec (Kanaka Eurogentec, Seraing, Belgium), then buffer exchanged with ammonium acetate (5 M; Sigma-Aldrich, Saint-Quentin-Fallavier, France) using Amicon Ultra (3 K cut-off; Merck Millipore, Cork, Ireland). Sample solutions were prepared by diluting the proper volume of oligonucleotide stock solutions to reach 10 µM of DNA and 20 µM of ligand, in 100 mM ammonium acetate. The solutions were incubated for 16 h at 4 °C before analysis. Kd were calculated as already described.

The subject of another test is ds26. The test can be described thus: Native electrospray mass spectrometry, duplex control ds26. The test is classed as binding. To be noted: 10 µM DNA, 20 µM ligand; for Bound DNA (%) ds26: 100 mM ammonium acetate, hairpin duplex control. The procedure:
as §2

Test [1] relates to human telomeric sequence F21T. The test can be described thus: FRET-melting, F21T. The test is classed as binding. The note with it: ligand 2 μM, DNA 0.2 μM, 10 mM KCl, 90 mM LiCl, pH 7.2.
The subject of test [2] is FBCL-2T (DNA, G4) GGGCGCGGGAGGAAGGGGGCGGG
The test can be described thus: FRET melting. The note with it: 10 mM K+, 90 mM Li+; 10 mM lithium cacodylate pH 7.2; 0.2 µM DNA, 2 µM compound.

The test system of test [3] is Fc-MYCT (DNA, G4) GGGTGGGTAGGGTGGGTAA
The test can be described thus: FRET melting. To be noted: 1 mM K+, 99 mM Li+ (table footnote says 10 mM KCl, 90 mM LiCl); 10 mM lithium cacodylate pH 7.2; 0.2 µM DNA, 2 µM compound.

Test [4] has as its system FK-RAST (DNA, G4) AGGGCGGTGTGGGAAGAGGGA
The test is described as follows: FRET melting. To be noted: 10 mM K+, 90 mM Li+; 10 mM lithium cacodylate pH 7.2; 0.2 µM DNA, 2 µM compound.

The test system of test [5] is F21T (DNA, G4) GGGTTAGGGTTAGGGTTAGGG
The test can be described thus: FRET melting. The note with it: 10 mM K+, 90 mM Li+; 10 mM lithium cacodylate pH 7.2; 0.2 µM DNA, 2 µM compound.

Test [6] relates to FdxT (DNA, hairpin, hexaethylene glycol linker between 10 and 11) TATAGCTATATATAGCTATA
The test is described as follows: FRET melting. To be noted: 10 mM K+, 90 mM Li+; 10 mM lithium cacodylate pH 7.2; 0.2 µM DNA, 2 µM compound.

The mark [7] stands for this setting: first binding event (1:1 complex), read-out: Kd1 c-MYC.
Setting [8] is: second binding event (2:1 complex), read-out: Kd2 c-MYC.
Where [9] appears, read: first binding event, read-out: Kd1 ds26.
The mark [10] stands for this setting: second binding event, read-out: Kd2 ds26.

Values joined by “and” are separate entries in the source; they are usually repeats but may differ in a detail not shown here. Equal values may be shown once. Read-outs that look alike come from different tables or passages of the source. Where only a bound is given, the exact number is not on record here.

Regarding `CN(C)CCCNCc1ccc(-c2nc(-c3ccc(CNCCCN(C)C)cc3)c3cc(-c4ccccc4)ccc3n2)cc1` [Compound 12b, 2,4-bis{4-[(3-dimethylaminopropyl)aminomethyl]phenyl}-6-phenylquinazoline], the IC50 was 0.82 ± 0.31 µM with HeLa, 0.7 ± 0.16 µM in the test on MDA-MB-231 and above 30 µM in the test on HEK293. In addition, the “Selectivity Index HEK293/HeLa” value in the test with HeLa was above 36.6. Moreover, the “Selectivity Index HEK293/MDA-MB-231” value in the test with MDA-MB-231 was above 42.8. Further, the “ΔT1/2 (°C) Fc-MYCT” value in the test with Fc-MYCT was determined as 5.8 ± 0.9 °C. In addition, the “ΔT1/2 (°C) FdxT” value in the test with FdxT turned out to be 0.4 ± 0.3 °C. Moreover, the “Bound DNA (%) c-MYC” value in the test on c-MYC is on record as 70%. Besides, the Kd on c-MYC (setting [7]) worked out at 5.8 µM; at c-MYC (setting [8]) it was 100 µM; on ds26 (setting [9]) it was 17 µM; on ds26 (setting [10]), 130 µM. In addition, the “Bound DNA (%) ds26” value in the test with ds26 is on record as 48%.
As to `CN(C)CCCNCc1ccc(-c2cc(-c3ccc(CNCCCN(C)C)cc3)c3cc(-c4ccccc4)ccc3n2)cc1` [Compound 13a, 2,4-bis{4-[(3-dimethylaminopropyl)aminomethyl]phenyl}-6-phenylquinoline], the IC50 with HeLa is 0.5 ± 0.01 µM; in the test with MDA-MB-231, 0.58 ± 0.02 µM; with HEK293 it was above 30 µM. Moreover, in the test on HeLa, the “Selectivity Index HEK293/HeLa” value is listed as above 60.0. Moreover, in the test on MDA-MB-231, the “Selectivity Index HEK293/MDA-MB-231” value was above 51.7. Besides, the “ΔT1/2 (°C) Fc-MYCT” value in the test on Fc-MYCT came to 7.3 ± 1.0 °C. In addition, in test [1], the “ΔT1/2 (°C) F21T” value is 21.5 ± 0.4 °C. In addition, the “ΔT1/2 (°C) FdxT” value with FdxT worked out at 0.4 ± 0.1 °C. For the same molecule, in the test on c-MYC, the “Bound DNA (%) c-MYC” value turned out to be 78%. Moreover, the Kd on c-MYC (setting [7]) came to 3.8 µM; on c-MYC (setting [8]), 36 µM; on ds26 (setting [9]) it was 14 µM; at ds26 (setting [10]), 95 µM. Moreover, in the test with ds26, the “Bound DNA (%) ds26” value is recorded as 53%.
Take `CN1CCN(CCCCNCc2ccc(-c3cc(-c4ccc(CNCCCCN5CCN(C)CC5)cc4)c4cc(-c5ccccc5)ccc4n3)cc2)CC1` [Compound 13d, 2,4-bis{4-[(4-(4-methylpiperazin-1-yl)butyl)aminomethyl]phenyl}-6-phenylquinoline]: the IC50 in the test with HeLa came to 2.27 ± 0.89 µM; in the test on MDA-MB-231, 1.64 ± 0.11 µM. In addition, the “ΔT1/2 (°C) Fc-MYCT” value in the test with Fc-MYCT turned out to be 10.6 ± 0.7 °C. In [1], the “ΔT1/2 (°C) F21T” value worked out at 8.0 ± 1.5 °C. Further, the “ΔT1/2 (°C) FdxT” value with FdxT worked out at 0.8 ± 0.2 °C. Also, the “Bound DNA (%) c-MYC” value in the test with c-MYC was 44%. Moreover, the Kd on c-MYC (setting [7]) amounted to 20 µM; at c-MYC (setting [8]), 440 µM; at ds26 (setting [9]) it was 85 µM; on ds26 (setting [10]) it was 460 µM. Moreover, the “Bound DNA (%) ds26” value in the test with ds26 came out at 18%. For the same molecule, in test [2], the ΔT1/2 turned out to be 5.0 ± 1.1 °C.
Regarding `CN1CCN(CCCCNCc2ccc(-c3nc(-c4ccc(CNCCCCN5CCN(C)CC5)cc4)c4cc(-c5ccccc5)ccc4n3)cc2)CC1` [Compound 12e, 2,4-bis{4-[(4-(4-methylpiperazin-1-yl)butyl)aminomethyl]phenyl}-6-phenylquinazoline], the IC50 with HeLa is 1.27 ± 0.02 µM; in the test on MDA-MB-231, 0.89 ± 0.46 µM. In addition, the “ΔT1/2 (°C) Fc-MYCT” value with Fc-MYCT is 19.5 °C and 19.5 ± 1.0 °C. Besides, the “ΔT1/2 (°C) F21T” value in [1] is 33.9 °C and 33.9 ± 0.5 °C. Moreover, the “ΔT1/2 (°C) FdxT” value in the test on FdxT is 5.4 ± 1.6 °C. Moreover, in the test on c-MYC, the “Bound DNA (%) c-MYC” value is 75%. For the same molecule, the Kd at c-MYC (setting [7]) was 4.3 µM; at c-MYC (setting [8]), 74 µM; at ds26 (setting [9]) it was 30 µM; at ds26 (setting [10]), 280 µM. Besides, the “Bound DNA (%) ds26” value in the test on ds26 was found to be 36%. Further, the ΔT1/2 in test [3] was 19.5 ± 1.0 °C; in [4] it was 33.1 ± 2.1 °C; in test [2], 22.7 ± 0.4 °C; in test [5] it was 33.9 ± 0.5 °C; in [6], 5.4 ± 1.6 °C.
